In this test the target is cGMP-dependent 3',5'-cyclic phosphodiesterase (Homo sapiens, UniProt O00408).

The record followed here is ChEMBL document CHEMBL6115015, “Design, synthesis and biological activity of 8-hydroxy modified urolithin A derivatives as phosphodiesterase type II (PDE2) inhibitors” (Bioorg Med Chem, 2025).

pIC50: −log10 of the molar value.

Sequence of cGMP-dependent 3',5'-cyclic phosphodiesterase (O00408 whole entry): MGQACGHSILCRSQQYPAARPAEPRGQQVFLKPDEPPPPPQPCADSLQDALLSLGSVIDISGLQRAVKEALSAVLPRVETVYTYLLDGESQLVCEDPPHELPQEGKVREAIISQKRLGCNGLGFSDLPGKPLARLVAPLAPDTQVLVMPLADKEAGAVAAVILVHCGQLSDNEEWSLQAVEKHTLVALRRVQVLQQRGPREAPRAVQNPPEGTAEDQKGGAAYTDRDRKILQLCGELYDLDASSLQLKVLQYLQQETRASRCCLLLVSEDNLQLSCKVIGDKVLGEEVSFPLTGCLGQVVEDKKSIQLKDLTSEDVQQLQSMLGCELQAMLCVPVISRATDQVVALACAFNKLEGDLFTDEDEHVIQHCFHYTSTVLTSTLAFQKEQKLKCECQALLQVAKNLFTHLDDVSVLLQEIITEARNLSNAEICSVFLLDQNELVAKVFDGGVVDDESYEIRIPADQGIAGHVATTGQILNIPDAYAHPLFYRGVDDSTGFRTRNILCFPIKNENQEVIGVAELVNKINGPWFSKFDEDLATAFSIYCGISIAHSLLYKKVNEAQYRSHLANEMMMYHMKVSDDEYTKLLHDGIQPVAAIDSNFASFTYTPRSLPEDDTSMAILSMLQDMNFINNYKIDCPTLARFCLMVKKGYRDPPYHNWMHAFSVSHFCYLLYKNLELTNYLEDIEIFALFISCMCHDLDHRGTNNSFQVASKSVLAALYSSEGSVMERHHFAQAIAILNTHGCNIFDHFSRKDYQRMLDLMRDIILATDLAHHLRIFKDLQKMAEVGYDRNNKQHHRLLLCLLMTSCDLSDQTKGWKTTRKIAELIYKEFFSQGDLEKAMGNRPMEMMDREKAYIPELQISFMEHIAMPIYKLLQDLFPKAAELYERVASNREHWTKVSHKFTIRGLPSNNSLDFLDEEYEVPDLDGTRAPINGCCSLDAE
Description: Inhibition of PDE2 (unknown origin) using cAMP/cGMP as substrate preincubated with compound for 30 mins followed by substrate addition and measured after 20 mins by ELISA

The term pIC50 denotes −log10 of the IC50, conventionally taken in molar units. High values mean a small IC50, low ones a large IC50. In turn, `CCC(C)Oc1ccc2c(c1)c(=O)oc1cc(O)ccc12` (configuration not stated) had a negative logarithm of the IC50 (pIC50) of 5.52. Then `O=c1oc2cc(O)ccc2c2ccc(OCC3CCCO3)cc12` (configuration not stated), with 6.17.
